For orientation: IC50 means the concentration at which inhibition is half-maximal. Low readings indicate inhibition by little substance, high ones a need for much substance. As usually defined, the clearance is the rate of elimination divided by the concentration. For orientation: bioavailability means dose-corrected exposure relative to a reference, in per cent. The low end stands for poor availability, the high end for good availability. As usually defined, the Tmax is the time at which the peak concentration occurs.

The values that follow come from patent publication US20230391776A1, “AMIDE OXAZOLE COMPOUND” (MEDSHINE DISCOVERY INC., priority 2020, published 2023).

One series has as its target T1, human IRAK4 (Homo sapiens, UniProt Q9NWZ3).
T1 construct: purchased Reaction Biology Corp
T1 sequence (Q9NWZ3 1-460): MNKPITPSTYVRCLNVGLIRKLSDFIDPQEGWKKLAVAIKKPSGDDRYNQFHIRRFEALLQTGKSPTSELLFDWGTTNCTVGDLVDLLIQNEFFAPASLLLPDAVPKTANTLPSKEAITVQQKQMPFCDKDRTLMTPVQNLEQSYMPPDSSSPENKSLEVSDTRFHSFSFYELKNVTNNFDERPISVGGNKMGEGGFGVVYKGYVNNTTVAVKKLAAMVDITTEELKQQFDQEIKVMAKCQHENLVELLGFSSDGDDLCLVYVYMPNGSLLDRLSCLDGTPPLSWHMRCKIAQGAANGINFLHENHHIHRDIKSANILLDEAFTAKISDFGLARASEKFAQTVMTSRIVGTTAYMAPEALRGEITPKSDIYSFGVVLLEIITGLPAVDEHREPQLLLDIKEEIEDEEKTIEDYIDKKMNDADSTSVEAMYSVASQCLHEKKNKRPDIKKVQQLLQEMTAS
The series is described as follows: In vitro IRAK4 kinase activity, 33P isotope-labeled kinase assay. It is filed as biochemical. Here is the method: The IC50 values were determined using ^33P isotope-labeled kinase activity assay (Reaction Biology Corp) to evaluate the inhibitory ability of the tested compounds on human IRAK4.
Buffer conditions: 20 mM Hepes (pH 7.5), 10 mM MgCl2, 1 mM EGTA, 0.02% Brij35, 0.02 mg/mL BSA, 0.1 mM Na3VO4, 2 mM DTT, 1% DMSO.
Test procedure: At room temperature, the tested compound was dissolved in DMSO and a 10 mM solution was prepared for use. The substrate was dissolved in a newly prepared buffer solution, and the tested IRAK4 kinase was added thereto and mixed evenly. The DMSO solution dissolved with the tested compound was added to the above mixed evenly reaction solution using acoustic technique (Echo 550). After incubation for 15 minutes, ^33P-ATP was added to initiate the reaction. The reaction was carried out at room temperature for 120 minutes, and the reaction mixture was dropped on P81 ion exchange filter paper (Whatman #3698-915). The filter paper was washed repeatedly with 0.75% phosphoric acid solution, and the radioactivity of phosphorylated substrate residues on the filter paper was determined. The kinase activity data were expressed by comparing the kinase activity of the group containing the tested compound with the kinase activity of the blank group (only containing DMSO), and the IC50 value was obtained by curve fitting by Prism4 software (GraphPad), the experimental results were shown in Table 2.

The test system of series [1] is TNF-α production in THP-1 cells. The series is described as follows: TNF-α ELISA in LPS-stimulated THP-1 cells. It is filed as cell-based. As to conditions: Homo sapiens, TNF-α in supernatant, 150 ng/mL LPS, 18 hours. The method, then: THP-1 human acute single cell leukemia cells were purchased from ATCC (Cat #TIB-202) and cultured at 37° C. in 5% CO2 incubator. The composition of medium was RPMI1640 (Gibco, Cat #22400-105), and the supplementary compositions were 10% FBS (Gibco, Cat #10091148); 1% PenStrep (Gibco, Cat #15140); 0.05 mM β-mercaptoethanol (Sigma, Cat #M6250).
TNF-α Elisa kit was used to detect the content of TNF-α in cell culture supernatant samples. TNF-α was produced by stimulating THP-1 cells with 150 ng/mL LPS (Sigma, Cat #L6529).
THP-1 cells cultured normally at logarithmic growth period were seeded in a 96-well plate (Corning #3599) at a certain concentration (1*10^5/100 μL) and then put into a cell incubator for incubation. After two hours, 16.7 μL of different concentrations of the compound to be tested (8*final concentration) were added and incubated in an incubator. After one hour, 16.7 μL of 1200 ng/mL LPS was added and incubated in an incubator. After 18 hours, the culture supernatant samples were collected by centrifugation, and the content of TNF-α could be detected by TNF-α Elisa kit. Finally, OD signals (OD450-OD570) were read on envision board reader.
The OD450-OD570 signal value was converted into a percentage inhibition rate.
Inhibition rate %=(ZPE−sample)/(ZPE−HPE)*100.
“HPE” referred to the OD450-OD570 signal value of the control well without LPS stimulated cells, and “ZPE” referred to the OD450-OD570 signal value of the control well with LPS stimulated cells. The IC50 value of the compound was calculated by XLFit in the excel add-in.
Y=Bottom+(Top−Bottom)/(1+(IC50/X)^HillSlope). Equation: […]
A general note: ELISA stands for enzyme-linked immunosorbent assay.

Series [2] in a line: Pharmacokinetic study of mice. The format is in vivo. As to conditions: mouse, plasma, CD-1 male mice; for Vd / AUC(0-t) / clearance / half-life: IV 3 mg/kg; for Vd: read-out: Apparent volume of distribution Vdss; for AUC(0-t): read-out: Area under the plasma concentration-time curve AUC0-24h; for clearance: read-out: Clearance rate CL; for half-life: read-out: Half-life T1/2 (converted); for bioavailability / AUC / Cmax / Tmax: PO 10 mg/kg; for AUC: read-out: Area under the plasma concentration-time curve AUC; for Cmax: read-out: Peak concentration Cmax; for Tmax: read-out: Peak time Tmax. Here is the method: The purpose of this experiment was to study the pharmacokinetics of the test compound in the plasma of CD-1 male mice after intravenous injection and oral administration.
Intravenous injection group: the tested compound was weighed and dissolved with 5% DMSO/10% Solutol/85% H2O, and the pH was adjusted to 4-5 with 6M hydrochloric acid, and a clear solution of 1.5 mg/mL was prepared by vortex, which was filtered by 0.22 m microporous membrane for later use. CD-1 male mice from 6 to 10 weeks old were selected and the test compound solution was injected intravenously at a dose of 3 mg/kg. The sample collection time was: 0.083, 0.25, 0.5, 1, 2, 4, 6, 8, 24 hours.
Oral administration group: the tested compound was weighed and dissolved with 5% DMSO/10% Solutol/85% H2O, the pH was adjusted to 3-4 with 6M hydrochloric acid, and a clear solution of 2.0 mg/mL was prepared by vortex for later use. CD-1 male mice from 6 to 10 weeks old were selected and the test compound was administered orally at a dose of 10 mg/kg. The sample collection time was: 0.25, 0.5, 1, 2, 4, 6, 8, 10, 24 hours.
Approximately 50 μL of whole blood was collected through the jugular vein at each time point for plasma preparation for concentration determination by high performance liquid chromatography-tandem mass spectrometry (LC-MS/MS). All animals were euthanized by CO2 anesthesia after collecting PK samples at the last time point. The non-atrioventricular model of WinnonLin™ Version 6.3 (Pharsight, Mountain View, CA) pharmacokinetic software was used to process the plasma concentration, and the pharmacokinetic parameters were calculated by linear logarithmic trapezoid method.

`Cc1cc(-c2nc(C(=O)Nc3cn4cc(C(C)(C)O)nc4cc3-c3ccccc3)co2)ccn1` [WX009]: 0.9 nM corresponded to half-maximal inhibition at human IRAK4 (IC50). This compound also returned an IC50 in series [1] of 60 nM. For the same compound, in series [2], the Vd was 1.5 L/kg, the AUC(0-t) was determined as 17.9 µM·h, the clearance turned out to be 5.9 mL/min/kg and the half-life was 486 min. Further, in series [2], the bioavailability was determined as 78%, the AUC amounted to 48 µM·h, the Cmax is 17.8 µM and the Tmax came out at 30 min.
`CC(C)(O)c1cn2cc(NC(=O)c3coc(-c4ccnc(N)c4)n3)c(-c3ccccc3)cc2n1` [WX017]: the IC50 against human IRAK4 worked out at 0.1 nM. Further, the IC50 in series [1] came to 15.9 nM. Also, in series [2], the Vd was determined as 0.5 L/kg, the AUC(0-t) was determined as 7.67 µM·h, the clearance was 15.1 mL/min/kg and the half-life is 138 min. In series [2], the bioavailability amounted to 41%, the AUC was determined as 10.4 µM·h, the Cmax came to 6.52 µM and the Tmax was 48 min.
On human IRAK4, `CC(C)(O)c1cn2cc(NC(=O)c3coc(-c4ccnc(N)c4F)n3)c(-c3ccccc3)cc2n1` [WX027] returned an IC50 of 0.1 nM. This compound also had a concentration for half-maximal inhibition (IC50) in series [1] of 41.9 nM. Further, in series [2], the Vd was 0.8 L/kg, the AUC(0-t) was determined as 3.77 µM·h, the clearance came to 28.2 mL/min/kg and the half-life was 114 min. In addition, in series [2], the bioavailability turned out to be 64%, the AUC was 8.08 µM·h, the Cmax is 4.93 µM and the Tmax amounted to 18 min.
